Source: ChEMBL document CHEMBL3885861, “Open TG-GATES”

Organism: Rattus norvegicus
Test: Open TG-GATES - Regimen: Single
Assay type: toxicity, organism-based, Sprague-Dawley
Set-up: regimen Single, gender Male, age 6 weeks
Conditions: in vivo, po, 0 mg/kg, route gavage, dose level Control; for APTT / Bas / Eos / Fbg / Hb / Ht / Lym / MCH / MCHC / MCV / Mono / Neu / PT / Plat / RBC / Ret / WBC: tissue Blood; for KIDNEY_L / KIDNEY_R / KIDNEY_TOTAL: tissue Kidney; for LIVER: tissue Liver; for A/G / ALP / ALT / AST / BUN / CRE / Ca / Cl / DBIL / GLC / IP / K / LDH / Na / PL / RALB / TBIL / TC / TG / TP / gamma-GTP: tissue Plasma

CCN(CC)N=O [N-NITROSODIETHYLAMINE]
TERMINAL_BW (3 h): 221 g | APTT (3 h): 19.6 s | Bas (3 h): 0.4% | Eos (3 h): 1% | Fbg (3 h): 223 mg/dL | Hb (3 h): 13.7 g/dL | Ht (3 h): 40% | Lym (3 h): 77.8% | MCH (3 h): 21.5 pg | MCHC (3 h): 34.1% | MCV (3 h): 63 fL | Mono (3 h): 2.2% | Neu (3 h): 18% | PT (3 h): 12 s | Plat (3 h): 127.6 x10_4/uL | RBC (3 h): 635.6 x10_4/ul | Ret (3 h): 7.2% | WBC (3 h): 66.1 x10_2/uL | KIDNEY_L (3 h): 1 g | KIDNEY_R (3 h): 0.9 g | KIDNEY_TOTAL (3 h): 1.9 g | LIVER (3 h): 9.5 g | A/G (3 h): 1.6 | ALP (3 h): 1051 IU/L | ALT (3 h): 37.4 IU/L | AST (3 h): 68.4 IU/L | BUN (3 h): 10 mg/dL | CRE (3 h): 0.4 mg/dL | Ca (3 h): 10.3 mg/dL | Cl (3 h): 102 meq/L | DBIL (3 h): 0.07 mg/dL | GLC (3 h): 194.2 mg/dL | IP (3 h): 9 mg/dL | K (3 h): 3.5 meq/L | LDH (3 h): 169.8 IU/L | Na (3 h): 140.8 meq/L | PL (3 h): 132.8 mg/dL | RALB (3 h): 3.4 g/dL | TBIL (3 h): 0.1 mg/dL | TC (3 h): 79.4 mg/dL | TG (3 h): 42.4 mg/dL | TP (3 h): 5.5 g/dL | gamma-GTP (3 h): 1 IU/L | TERMINAL_BW (6 h): 223.5 g | APTT (6 h): 20.6 s | Bas (6 h): 0.2% | Eos (6 h): 1% | Fbg (6 h): 218 mg/dL | Hb (6 h): 13.5 g/dL | Ht (6 h): 39.5% | Lym (6 h): 79.6% | MCH (6 h): 21.4 pg | MCHC (6 h): 34.3% | MCV (6 h): 62.5 fL | Mono (6 h): 2.4% | Neu (6 h): 16% | PT (6 h): 12 s | Plat (6 h): 130.4 x10_4/uL | RBC (6 h): 631.8 x10_4/ul | Ret (6 h): 6.9% | WBC (6 h): 81.9 x10_2/uL | KIDNEY_L (6 h): 1 g | KIDNEY_R (6 h): 1 g | KIDNEY_TOTAL (6 h): 2 g | LIVER (6 h): 9.9 g | A/G (6 h): 1.6 | ALP (6 h): 946.2 IU/L | ALT (6 h): 34.2 IU/L | AST (6 h): 72.4 IU/L | BUN (6 h): 13.6 mg/dL | CRE (6 h): 0.4 mg/dL | Ca (6 h): 10.3 mg/dL | Cl (6 h): 102.8 meq/L | DBIL (6 h): 0.076 mg/dL | GLC (6 h): 201.2 mg/dL | IP (6 h): 7.8 mg/dL | K (6 h): 3.6 meq/L | LDH (6 h): 193 IU/L | Na (6 h): 140.8 meq/L | PL (6 h): 141.6 mg/dL | RALB (6 h): 3.4 g/dL | TBIL (6 h): 0.1 mg/dL | TC (6 h): 82.2 mg/dL | TG (6 h): 54.4 mg/dL | TP (6 h): 5.5 g/dL | gamma-GTP (6 h): 1.4 IU/L | TERMINAL_BW (9 h): 228.4 g | APTT (9 h): 18.5 s | Bas (9 h): 0.8% | Eos (9 h): 1.2% | Fbg (9 h): 230.8 mg/dL | Hb (9 h): 13.7 g/dL | Ht (9 h): 39.7% | Lym (9 h): 75.4% | MCH (9 h): 21.6 pg | MCHC (9 h): 34.5% | MCV (9 h): 62.5 fL | Mono (9 h): 2.6% | Neu (9 h): 19.2% | PT (9 h): 12 s | Plat (9 h): 125.1 x10_4/uL | RBC (9 h): 636 x10_4/ul | Ret (9 h): 7.1% | WBC (9 h): 92.6 x10_2/uL | KIDNEY_L (9 h): 1 g | KIDNEY_R (9 h): 1 g | KIDNEY_TOTAL (9 h): 1.9 g | LIVER (9 h): 10.1 g | A/G (9 h): 1.6 | ALP (9 h): 875.4 IU/L | ALT (9 h): 37.8 IU/L | AST (9 h): 69 IU/L | BUN (9 h): 13.8 mg/dL | CRE (9 h): 0.4 mg/dL | Ca (9 h): 10.4 mg/dL | Cl (9 h): 103 meq/L | DBIL (9 h): 0.08 mg/dL | GLC (9 h): 206.4 mg/dL | IP (9 h): 8 mg/dL | K (9 h): 3.8 meq/L | LDH (9 h): 196.4 IU/L | Na (9 h): 140.6 meq/L | PL (9 h): 141.6 mg/dL | RALB (9 h): 3.4 g/dL | TBIL (9 h): 0.1 mg/dL | TC (9 h): 84.2 mg/dL | TG (9 h): 56.8 mg/dL | TP (9 h): 5.6 g/dL | gamma-GTP (9 h): 1.4 IU/L | TERMINAL_BW (24 h): 229.8 g | APTT (24 h): 18.9 s | Bas (24 h): 0% | Eos (24 h): 1.2% | Fbg (24 h): 226.2 mg/dL | Hb (24 h): 13.5 g/dL | Ht (24 h): 39.6% | Lym (24 h): 82.6% | MCH (24 h): 21.5 pg | MCHC (24 h): 34.1% | MCV (24 h): 63.2 fL | Mono (24 h): 1.8% | Neu (24 h): 13.8% | PT (24 h): 11.7 s | Plat (24 h): 128.8 x10_4/uL | RBC (24 h): 627.2 x10_4/ul | Ret (24 h): 6.6% | WBC (24 h): 85.1 x10_2/uL | KIDNEY_L (24 h): 1.1 g | KIDNEY_R (24 h): 1 g | KIDNEY_TOTAL (24 h): 2.1 g | LIVER (24 h): 10.2 g | A/G (24 h): 1.6 | ALP (24 h): 1035 IU/L | ALT (24 h): 37.8 IU/L | AST (24 h): 63.6 IU/L | BUN (24 h): 14 mg/dL | CRE (24 h): 0.4 mg/dL | Ca (24 h): 10.5 mg/dL | Cl (24 h): 103.6 meq/L | DBIL (24 h): 0.07 mg/dL | GLC (24 h): 208 mg/dL | IP (24 h): 9.5 mg/dL | K (24 h): 3.7 meq/L | LDH (24 h): 190.6 IU/L | Na (24 h): 141 meq/L | PL (24 h): 150.6 mg/dL | RALB (24 h): 3.3 g/dL | TBIL (24 h): 0.1 mg/dL | TC (24 h): 86.6 mg/dL | TG (24 h): 57.8 mg/dL | TP (24 h): 5.4 g/dL | gamma-GTP (24 h): 1 IU/L
